The source of these data is patent US20220306585A1, “PYRAZOLE DERIVATIVES FOR CONTROLLING ARTHROPODS” (Bayer Animal Health GmbH, priority 2019, published 2022).

Series [1] is described as follows: Measurement of stability of prodrugs in buffer at pH 7.4. Format: physicochemical. The conditions noted are these: PBS buffer pH 7.4, 37° C., HPLC peak area, read-out: % Recovery after 24 h (stability at pH 7.4). The essentials: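 Test compound (0.15 mg) in DMSO/acetonitrile was mixed with PBS pH 7.4 and held at 37 °C for 24 h. Remaining compound was followed by HPLC as peak area percentage of total area. The final time point was also analysed by HPLC-MS.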

Series [2] in a line: Degradation of prodrugs and release of parent drug in rat plasma. The class given is in vitro ADME. The conditions noted are these: male, Hannover-Janvier RjHan, rat plasma (Li-heparin), 37° C., percent area of prodrug at t0. The essentials:
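Prodrug spiked into male Hannover rat Li-heparin plasma at 37 °C. Samples at 0.17–4 h quenched in acetonitrile/citric acid pH 3, then analysed by HPLC, with HPLC-MS at final time point. Prodrug loss and parent drug appearance given as percent area of prodrug at t0.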

Series [3] can be described thus: Evaluation of pharmacokinetics in vivo (rat). The conditions noted are these: concentration of Parent Drug A after admin. of the named substance. Here is the method: (§1) Evaluation of Pharmacokinetics (In Vivo) To evaluate the pharmacokinetics of test substances in vivo, these test substances are dissolved in appropriate formulation vehicles (ethanol, dimethyl sulfoxide, PEG400, glycerol formal etc.), or mixtures thereof. The test substances are then administered to rats or dogs intravenously, orally or subcutaneously. The intravenous application is performed as bolus. Administered doses range usually between 0.1 to 5 mg/kg, however, doses for subcutaneous and oral administration can exceed this range up to doses of 30 mg/kg. Blood samples are retrieved via a catheter, exsanguination or venous puncture in vials containing appropriate anticoagulants, such as lithium heparinate or potassium EDTA. Plasma is generated from the blood via centrifugation. Blood samples are taken over an appropriate time interval, usually lasting up to 144 h after administration. If necessary, samples from later time points can also be taken. If possible, time points are chosen so that the initial absorption phase, the maximum plasma concentration (Cmax), and exposure within a certain time interval (AUC(0-t))aer described. Furthermore, it is possible to also retrieve organ-, tissue- and urine samples. The quantitative measurement of the test substances in the samples is performed using calibration curves in the respective matrices. The protein content of the samples is precipitated using acetonitrile or methanol. Thereafter, the samples are separated using HPLC in combination with reversed phase chromatography columns. The HPLC system is coupled to a triple quadrupole mass spectrometer via an electrospray interface. The evaluation of the plasma concentration/time profiles are afterwards evaluated using a validated pharmacokinetics evaluation program. […] Relative bioavailability (Frel) was used to describe the exposure of parent drug after prodrug administration compared to the exposure of parent drug after direct administration of compound A which was normalised to 100%.

Series [4] relates to Ctenocephalides felis adult. Briefly: Antiparasitic activity after administration to rats: fleas. Format: in vivo. The conditions noted are these: Ctenocephalides felis adult; for In-vivo Efficacy SD2: study day 2; for In-vivo Efficacy SD9: study day 9; for In-vivo Efficacy SD16: study day 16. Here is the method: (§2) Measurement of the Antiparasitic Activity after Administration of a Prodrug to Rats Compounds were dissolved in the appropriate volume of glycerol formal (p.a.) just before application to the animals (dose volume was adjusted to 0.03 mL/kg bodyweight). 5 rats per group were either injected intraperitoneally or subcutaneously. Rats were infested with 30 Dermacentor variabilis nymphs on study days −2, 7, 14, 21, 28, 35 and 30 adult Ctenocephalides fleas on study days −1, 8, 15, 22, 29, 36. Parasite counts were performed on study days 2, 9, 16, 23, 30, 37. Percent efficacy was calculated as arithmetic mean parasite numbers as life attached tick numbers and live flea numbers of the respective study group in comparison to parasite counts on a placebo-treated control group. Infestation of groups with less than 75% efficacy on two consecutive counting occasions will terminated for the respective parasite.

Series [5] has as its system Dermacentor variabilis nymph. As to the kind of experiment: Antiparasitic activity after administration to rats: ticks. Format: in vivo. The settings on record: Dermacentor variabilis nymph; for In-vivo Efficacy SD2: study day 2; for In-vivo Efficacy SD9: study day 9; for In-vivo Efficacy SD16: study day 16; for In-vivo Efficacy SD23: study day 23; for In-vivo Efficacy SD30: study day 30; for In-vivo Efficacy SD37: study day 37. Here is the method: as §2

A short description of series [6]: Measurement of solubility in buffer at pH 6.5. Format: physicochemical. The conditions noted are these: aqueous buffer, kinetic from dmso stock; PBS buffer pH 6.5, shaken 24 h at rt, LC-MSMS; read-out: Solubility of example compounds at pH 6.5. The essentials: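 DMSO stock (50 g/L) diluted into PBS pH 6.5, nominal final […], shaken 24 h at rt. After centrifugation, supernatant concentration quantified by LC-MSMS against a 1.2–600 ng/mL calibration curve.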

Series [7] is described as follows: Evaluation of pharmacokinetics in vivo (dog). Here is the method: as §1

SMILES strings stand for the structures. Converted amounts (≈) assume the structure as drawn.

What is called solubility is how much of the substance goes into solution per volume. As a reminder, the bioavailability is the share of a dose that reaches the circulation, judged against a reference dose that is usually intravenous.

In the case of `N#CC1(N(COC(=O)CCC(=O)O)C(=O)c2cc(-c3cnn(-c4c(Cl)cc(C(F)(C(F)(F)F)C(F)(F)F)cc4OC(F)(F)F)c3)ccc2Cl)CC1` [Example 8, 4-{[(2-Chloro-5-{1-[2-chloro-4-(1,1,1,2,3,3,3-heptafluoropropan-2-yl)-6-(trifluoromethoxy)phenyl]-1H-pyrazol-4-yl}benzoyl)(1-cyanocyclopropyl)amino]methoxy}-4-oxobutanoic acid], the recovery at 24 h, 0.1 mg/mL in series [1] was determined as 95%. Also, in series [2] (0.17 h), the recovery at 0.17 h, 39 µg/mL amounted to 96%. Besides, in series [2] (0.5 h), the recovery at 0.5 h, 39 µg/mL came to 95%. Further, the recovery at 1 h, 39 µg/mL in series [2] (1 h) is 93%. In addition, the recovery at 1.5 h, 39 µg/mL in series [2] (1.5 h) was determined as 92%. For the same compound, in series [2] (2 h), the recovery at 2 h, 39 µg/mL was 90%. In addition, in series [2] (4 h), the recovery at 4 h, 39 µg/mL was 86%. Also, the “AUC(0-144 h)norm of parent drug A” value in series [3] (iv bolus) stood at 12 kg·h/L; in series [3] (sc), 6.7 kg·h/L. For the same compound, the “In-vivo Efficacy SD2” value in series [4] (12.00 mg/kg sc) and in series [5] (12.00 mg/kg sc) was 100% in each case. The “In-vivo Efficacy SD9” value was 99% in series [4] (12.00 mg/kg sc) and 100% in series [5] (12.00 mg/kg sc). Besides, the “In-vivo Efficacy SD16” value was 100% in series [4] (12.00 mg/kg sc) and 99% in series [5] (12.00 mg/kg sc). Moreover, the “In-vivo Efficacy SD23” value is reported as 100% in series [4] (12.00 mg/kg sc, study day 23) and 100% in series [5] (12.00 mg/kg sc). Besides, the “In-vivo Efficacy SD30” value in series [4] (12.00 mg/kg sc, study day 30) turned out to be 97%; in series [5] (12.00 mg/kg sc), 100%. Moreover, the “In-vivo Efficacy SD37” value is listed as 88% in series [4] (12.00 mg/kg sc, study day 37) and 100% in series [5] (12.00 mg/kg sc). Further, the “In-vivo Efficacy SD42” value in series [4] (12.00 mg/kg sc, study day 42) worked out at 78%; in series [5] (12.00 mg/kg sc, study day 42), 92%. In series [6], the solubility at 24 h was found to be 0.012 mg/mL (≈ 15.4 µM).
For `N#CC1(NC(=O)c2cc(-c3cnn(-c4c(Cl)cc(C(F)(C(F)(F)F)C(F)(F)F)cc4OC(F)(F)F)c3)ccc2Cl)CC1` [Parent Drug A, 2-Chlor-5-{1-[2-chlor-4-(1,1,1,2,3,3,3-heptafluorpropan-2-yl)-6-(trifluormethoxy)phenyl]-1H-pyrazol-4-yl}-N-(1-cyanocyclopropyl)benzamide, reference compound], in series [3] (iv bolus), the “AUC(0-144 h)norm of parent drug A” value stood at 11 kg·h/L. Also, the “AUC(0-144 h)norm of parent drug A” value in series [3] (sc) was 1.7 kg·h/L. In series [4] (10 mg/kg ip), the “In-vivo Efficacy SD2” value was 84%, the “In-vivo Efficacy SD9” value is given as 68% and the “In-vivo Efficacy SD16” value amounted to 71%. In addition, in series [4] (10 mg/kg sc), the “In-vivo Efficacy SD2” value was determined as 53% and the “In-vivo Efficacy SD9” value came to 44%. Further, in series [5] (10 mg/kg ip), the “In-vivo Efficacy SD2” value is 96%, the “In-vivo Efficacy SD9” value is on record as 87%, the “In-vivo Efficacy SD16” value amounted to 83% and the “In-vivo Efficacy SD23” value is reported as 93%. In addition, in series [5] (10 mg/kg ip), the “In-vivo Efficacy SD30” value worked out at 53% and the “In-vivo Efficacy SD37” value amounted to 32%. Besides, in series [5] (10 mg/kg sc), the “In-vivo Efficacy SD2” value is listed as 72% and the “In-vivo Efficacy SD9” value was 61%. Also, the “AUC(0-72 h)norm of parent drug A” value in series [7] (iv bolus, concentration of Parent Drug A after admin. of the named substance) came to 6.0 kg·h/L. Moreover, the bioavailability in series [7] (plasma, sc, calculated based on AUC(0-t)norm, parent drug A normalised to 100%, read-out: Frel (relative bioavailability)) is 100%. In addition, in series [7] (sc, concentration of Parent Drug A after admin. of the named substance), the “AUC(0-384 h)norm of parent drug A” value worked out at 1.0 kg·h/L.
